≈ marks a conversion by molar mass, not a printed value.

Holding throughout (type): cell-based
The subject of assay [1] is Mannheimia haemolytica MH 10720 (154, BRD field isolate). As to the kind of experiment: MIC, broth-microdilution (CLSI VET01-A4). Particulars: strain MH 10720. In outline:
(§1)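 Visual no-turbidity endpoint over twofold compound dilutions in microdilution trays, interpreted according to CLSI VET01-S3.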
A general note: Broth dilution looks for growth in wells or tubes with falling amounts of substance.

The subject of assay [2] is Mannheimia haemolytica MH 12587 (1071, BRD field isolate, macrolide-resistance: erm+, E+). Put plainly: MIC, broth-microdilution (CLSI VET01-A4). Conditions: strain MH 12587, macrolide-resistant. In outline:
as §1

For assay [3], the system named is Mannheimia haemolytica MH 6357 (M7/2, reference strain, cattle infection strain). As to the kind of experiment: MIC, broth-microdilution (CLSI VET01-A4). Conditions: strain MH 6357. In outline: as §1
Assay [4] concerns Mannheimia haemolytica MH 6374 (ATCC 33396, reference strain). Put plainly: MIC, broth-microdilution (CLSI VET01-A4). Particulars: strain MH 6374. In outline:
as §1

Assay [5] deals with Pasteurella multocida PM 10775 (080130003051, BRD field isolate). As to the kind of experiment: MIC, broth-microdilution (CLSI VET01-A4). Particulars: strain PM 10775. In outline:
as §1

Assay [6] deals with Pasteurella multocida PM 12080 (IV102277-0093, BRD field isolate). Put plainly: MIC, broth-microdilution (CLSI VET01-A4). Particulars: strain PM 12080. In outline:
as §1

Assay [7] concerns Pasteurella multocida PM 6267 (P 2225 (L386), reference strain, mouse infection strain). Put plainly: MIC, broth-microdilution (CLSI VET01-A4). Particulars: strain PM 6267. In outline: as §1
Assay [8] concerns Pasteurella multocida PM 6391 (ATCC 43137, reference strain). As to the kind of experiment: MIC, broth-microdilution (CLSI VET01-A4). Conditions: strain PM 6391. In outline: as §1
In assay [9] the test system is Acinetobacter baumanii AB 15919 (IV369-2012, dermatitis field isolate). Put plainly: MIC, broth-microdilution (CLSI VET01-A4). Conditions: strain AB 15919. The method, then:
(§2) The Minimum inhibitory concentrations (MIC) of compounds according to the invention were determined by the broth-microdilution method according to CLSI document VET01-A4.
(§3) Microdilution trays containing a doubling dilution series of the test compound were used for the tests.
(§4) The MIC results were interpreted according to the CLSI documents VET01-S3. The lowest concentration of compound at which no visible growth (i.e. no turbidity) detected by the unaided eye was recorded as the MIC.

The subject of assay [10] is Acinetobacter baumanii AB 16496 (ATCC 19606, reference strain). As to the kind of experiment: MIC, broth-microdilution (CLSI VET01-A4). Particulars: strain AB 16496. The procedure:
as §2, §3, §4

Assay [11] deals with Mannheimia haemolytica MH 12180 (KLI-02944, BRD field isolate). As to the kind of experiment: MIC, broth-microdilution (CLSI VET01-A4). Particulars: strain MH 12180. The method, then:
as §2, §3, §4

In assay [12] the test system is Pasteurella multocida PM 14426 (0006-439, BRD field isolate, macrolide-resistant). Put plainly: MIC, broth-microdilution (CLSI VET01-A4). Particulars: strain PM 14426, macrolide-resistant. The procedure: as §2, §3, §4
The subject of assay [13] is Staphylococcus aureus SA 5816 (2139, mastitis field isolate). As to the kind of experiment: MIC, broth-microdilution (CLSI VET01-A4). Conditions: strain SA 5816. The procedure:
as §2, §3, §4

Assay [14] concerns Staphylococcus aureus SA 6114 (ATCC 29213, reference strain). As to the kind of experiment: MIC, broth-microdilution (CLSI VET01-A4). Conditions: strain SA 6114. The procedure: as §2, §3, §4
Assay [15] has as its system 20 isolates of Actinobacillus (A.) pleuropneumoniae. Put plainly: MIC50/MIC90, broth-microdilution, European respiratory tract isolates. The procedure: (§5) The in vitro activity of compounds against 20 isolates of Actinobacillus (A.) pleuropneumoniae, 20 of Bordetella (B.) bronchiseptica, 20 of Histophilus (H.) somni, 40 of Mannheimia (M.) haemolytica and 40 of Pasteurella (P.) multocida collected in different European countries were determined. All bacteria were isolated from the respiratory tract of swine and cattle suffering from respiratory disease. All isolates were epidemiologically unrelated as specified by the different suppliers.
(§6) The minimum inhibitory concentrations (MIC) of compounds according to the invention were determined by the broth-microdilution method according to CLSI document VET01-A4.
(§7) Microdilution trays containing a doubling dilution series of the test compounds were used for the tests.
as §4

For assay [16], the system named is 20 isolates of Bordetella (B.) bronchiseptica. Described as above. The method, then: as §5, §6, §7, §4
Assay [17] deals with 20 isolates of Histophilus (H.) somni. The assay is described as above. The method, then:
as §5, §6, §7, §4

The test system of assay [18] is 40 isolates of Mannheimia (M.) haemolytica. Described as above. The method, then: as §5, §6, §7, §4
Assay [19] has as its system 40 isolates of Pasteurella (P.) multocida. The description is as above. The procedure:
as §5, §6, §7, §4

In the case of `CCCNCc1ccc(C#Cc2ccc(C(=O)N[C@H](C(=O)NO)[C@@H](C)O)cc2)cc1` [C. 251], the MIC in assay [1] was 0.25 µg/mL (≈ 0.611 µM); in assay [2] it was 2 µg/mL (≈ 4.88 µM); in [3], 2 µg/mL (≈ 4.88 µM); in [4] it was 8 µg/mL (≈ 19.5 µM); in [5], 8 µg/mL (≈ 19.5 µM); in assay [6] it was 0.063 µg/mL (≈ 0.154 µM). In addition, the MIC in assay [7] is 1 µg/mL (≈ 2.44 µM); in assay [8], 8 µg/mL (≈ 19.5 µM); in [9], more than 16 µg/mL; in assay [10], more than 16 µg/mL; in [11], 8 µg/mL (≈ 19.5 µM); in assay [12], 8 µg/mL (≈ 19.5 µM). For the same molecule, the MIC in assay [13] and in assay [14] was more than 16 µg/mL each time. In addition, the MIC50 in [15] is 0.25 µg/mL (≈ 0.611 µM); in assay [16], more than 16 µg/mL; in assay [17], 0.125 µg/mL (≈ 0.305 µM); in [18], 1 µg/mL (≈ 2.44 µM); in assay [19], 0.063 µg/mL (≈ 0.154 µM). Besides, the MIC90 is 0.5 µg/mL (≈ 1.22 µM) in [15]; more than 16 µg/mL in assay [16]; 0.25 µg/mL (≈ 0.611 µM) in [17]; 1 µg/mL (≈ 2.44 µM) in assay [18]; 0.125 µg/mL (≈ 0.305 µM) in [19].

As a reminder, the MIC is the least concentration at which growth counts as inhibited. One may read the MIC50 as the lowest concentration that inhibits either 50% of growth or 50% of the strains tested, depending on the study. Read a high MIC50 as weaker potency. A word on the MIC90: it is the lowest concentration that inhibits either 90% of growth or 90% of the strains tested, depending on the study. Low readings indicate greater potency, high ones weaker potency.

The values are drawn from patent publication US20230000813A1, “COMPOUND FOR THE TREATMENT OF BOVINE OR SWINE RESPIRATORY DISEASE” (Intervet Inc., priority 2016, published 2023).
